According to patent US6491922B1, “Methods and compounds for treating autoimmune and vascular disease” (Cornell Research Foundation, Inc., priority 1996, dated 2002):
Several values for one entry are separate records, joined by “and”; a condition that tells them apart may be missing. Equal entries are not always repeated. Entries after “also recorded” stand apart in the source; their conditions may differ. Where two headings read alike, the source gives them in different places.

Tests used:
[1] = tested on: DNA sequence from the −310 to −57 region of the IL-1β promoter; test: Gel shift assay of nuclear protein binding to IL-1β promoter DNA; assay type: cell-based, human; conditions: THP-1 cells treated with LPG; preliminary data
THP-1 cells = test: LPG and LPG fragment binding to THP-1 cells (indirect immunofluorescence, FACS); set-up: species or system human; conditions: LPG 1 μM
[2] = tested on: murine nitric oxide synthase activity; test: Nitrite production (Griess assay) in RAW 264.7 cells; assay type: cell-based
Description: RAW 264.7 cells were treated with LPG 1 μM and simultaneously stimulated with endotoxin and mIFN-γ. Supernatants from each treatment condition were removed at 24, 48, and 72 hours, and nitrite production was measured by the Griess assay.
To determine whether LPG can alter NOS expression, a well characterized murine macrophage cell line, RAW 264.7 cells, were used to measure NOS activity. […] Because macrophages encounter LPG usually in the context of entry of the parasite, it was examined whether Leishmania promastigotes, upon entry into macrophages, transfer LPG onto the macrophage cell surfaces and inhibit nitrite production. L. donovani prosmastigotes (“Ld3”) within 15 minutes of attachment to human monocytes, THP-1 cells, or murine peritoneal macrcophages transferred LPG onto the surface of the macrophages, as determined by a monoclonal antibody against LPG and indirect fluorescent microscopy. Two hours after entering murine peritoneal macrophages, Ld3 promastigoes suppressed endotoxin- and IFN-γ induction of NOS activity; the inhibition was parasite dose dependent.

IL-1β mRNA [3] = test: IL-1β mRNA stability with actinomycin D in THP-1 cells; assay type: cell-based, human; conditions: 2 μM LPG simultaneous with LPS 2 μg/ml, actinomycin D after 2 h
Description: THP-1 cells (10^7 cells/condition) were stimulated with 2 μg/ml LPS or 2 μg/ml LPS with 2 μM LPG at time 0 h. Actinomycin D (6 μg/ml) was added to all conditions 2 h later and cells were harvested by gentle scraping for extraction of total RNA at the designated time. The 2 h time point after LPS or LPS plus LPG treatment was used as the respective reference for comparison with residual IL-1β mRNA at the later time points. For each condition and time, the total RNA separated on agarose gel, transferred and immobilized on nylon membrane were probed with ^32P-labeled IL-1β cDNA or GAPDH cDNA.

[4] = tested on: human umbilical vein endothelial cells; test: LPG and LPG fragment binding to endothelial cells (indirect immunofluorescence, FACS); conditions: LPG 1 μM
TNF-α transcription = test: Nuclear run-on assay, TNF-α transcription; assay type: cell-based, human; conditions: LPG 1 μM pretreatment; LPS 1 μg/ml
VCAM-1 = test: Endotoxin-induced VCAM-1 expression on endothelial cells (FACS); assay type: cell-based, human
NOS mRNA = assay type: cell-based, human; conditions: IFN-γ-primed macrophages; LPG 2 μM pretreatment; RT/PCR
IL-1β mRNA [5] = test: Northern analysis of IL-1β mRNA induction in peripheral blood monocytes; conditions: 2 μM LPG pretreatment 2 h, N=2
Description: Human peripheral blood cells from the New York Blood Center (New York, N.Y.) obtained by Hypaque-Ficoll density centrifugation and adherence to plastic are 99% monocytes. […] Human monocytic cells THP-1 (TIB-202) and plasmid containing glyceraldehyde-3-phosphate dehydrogenase [GAPDH] cDNA (cat. #57090) were obtained from American Type Culture Collection (ATCC), Rockville, MdD. […] RPMI-1640, fetal bovine serum, L-glutamine, and penicillin-streptomycin (Gibco, Grand Island, N.Y.); β-mercaptoethanol, phorbol 12-myristate 13-acetate (PMA) and LPS from Escherichia coli serotype 055: B5 were purchased from the Sigma Chemical Co., St. Louis, Miss.
Human monocytes were cultured in endotoxin free complete medium as previously described. […]
Cells treated with or without LPG and/or inducers of IL-1β were harvested by gentle scrapping using a rubber policeman and sedimented by centrifugation at 500 g for 5 minutes in a microfuge. Total RNA was extracted using RNA STAT-60 solution (TEL-TEST “B” Inc., Friendswood, Tex.), based on a single step method for RNA isolation (P. Chomczynski and N. Sacchi, “Single-step Method of RNA Isolation by Acid Guanidinium Thiocyanate-phenol-chloroform Extraction,” Anal. Biochem., 162:156-59 (1987), hereby incorporated by reference), and quantitated by spectrophotometry.

IL-1β promoter = assay type: cell-based, human; conditions: for suppression of endotoxin-induced CAT activity: LPG 2 μM 1 h; for suppression of LPS-induced CAT activity: 2 μM LPG 2 h
endothelial cells = test: Endothelial adhesion to monocytes (MM6) assay
Description: Endothelial cell were isolated from human umbilical veins by an established method as described. […] In all experiments, 2-4 passages of subcultured endothelial cells were used and were grown on fibronectin-precoated 96-well plates for 2-3 days prior to use.
On the day of the experiment, endothelial cells were treated with endotoxin (E. coli, J5, 10 ng/ml) for 4 h. MM6 (1×10^5 cells) were subsequently added to the endotoxin-stimulated endothelial cells. Monocyte adhesion was performed for 20 min at 37° C. Unbound MM6 cells were removed by washing (3×). Adhesion of MM6 onto endothelium was quantitated by counting the bound MM6 cells under a microscope. […] The values of triplicates were averaged, and variations between triplicates were <5%. […] For experiments to examine if LPG could inhibit endotoxin-mediated monocyte adhesion, the endothelial cells were first preincubated with LPG (2 μM) for 1-2 h at 37° C. prior to the addition of endotoxin.

lipophosphoglycan [LPG]
induction of nuclear protein(s) binding to promoter DNA sequence [1]: induced the presence of a nuclear protein(s) that bound a DNA sequence derived from this region | time at which LPG binding was obvious (THP-1 cells): 16 min | LPG binding (THP-1 cells; 1 h): significant LPG was bound | effect on nitrite production ([2]; RAW 264.7, LPG 1 μM simultaneous with endotoxin and IFN-γ): inhibited the enhancement of nitrite production | reversal of the inhibition by higher amounts of agonists ([2]; higher amounts of endotoxin and IFN-γ): could not reverse | enhancement of rate of IL-1β mRNA degradation (IL-1β mRNA [3]): approximately 30% | time at which LPG binding was obvious [4]: 16 min | LPG binding ([4]; 1 h): significant LPG was bound | suppression of endotoxin-mediated TNF-α transcription (TNF-α transcription): −70% | effect on endotoxin-mediated expression of VCAM-1 (VCAM-1): strongly suppressed | effect on M. tuberculosis-induction of NOS mRNA (NOS mRNA): suppressed | inhibition of LPS induction of IL-1β mRNA (IL-1β mRNA [5]; LPS 2 μg/ml): greater than 90% | inhibition of S. epidermidis induction of IL-1β mRNA (IL-1β mRNA [5]): greater than 80% | LPG's inhibitory activity on LPS-induced CAT activity (IL-1β promoter; IL-1β promoter deleted to −57): completely abrogated; also recorded: no LPG inhibitory activity | suppression of CAT activity (IL-1β promoter; IL-1β promoter truncated to −131): 7%+1% and 7% | suppression of endotoxin-induced CAT activity (IL-1β promoter; deletional mutant X2-HT-CAT (−3757 to −2729 linked to −131 to +11)): 8%+4% and 8% | suppression of endotoxin-induced CAT activity (IL-1β promoter; full-length −3757 to +11 construct (XT-CAT), n=5): 50%+5% | effect on endotoxin-activation of IL-1β promoter activity in presence of serum (IL-1β promoter; medium with 2.5% or 5% FBS, LPG 2 μM 2 h, LPS 2 μg/ml): suppresses; also recorded: similar | suppression of LPS-induced CAT activity (IL-1β promoter; plasmid with −310/+15 promoter sequence, LPS 2 μg/ml): approximately 40% | suppression of LPS-induced CAT activity (IL-1β promoter; plasmid with −680/+15 promoter sequence, LPS 2 μg/ml): approximately 40% | suppression of LPS-induced CAT activity (IL-1β promoter; plasmid with −1110/+15 promoter sequence, LPS 2 μg/ml): approximately 40% | inhibition of endotoxin-mediated monocyte adhesion (dose-dependent 0.01 μM to 2 μM) (endothelial cells; 2 μM LPG pretreatment, endotoxin 10 ng/ml 4 h): completely inhibiting | effect on IL-1β-mediated endothelial cell adhesion (endothelial cells; IL-1β 100 U/ml, n=4): lack of LPG inhibitory activity | inhibition of endotoxin-mediated monocyte adhesion (time-dependent) (endothelial cells; LPG 2 μM, 2 h pretreatment, endotoxin 10 ng/ml 4 h): completely abrogating | TNF-α-mediated endothelial adhesion to monocytes (endothelial cells; LPG plus TNF-α, TNF-α alone 1,750±100, basal 100±50, n=6): 1,650±130 cell/mm^2 | minimal pretreatment time required for inhibition of endotoxin-mediated monocyte adhesion (endothelial cells; endothelial cells): 15 to 30 min | effect on TNF-α-mediated endothelial adhesion to monocytes (endothelial cells; n=6): did not affect | IC50 (endothelial cells; read-out: half-maximal inhibitory concentration, endotoxin-mediated monocyte adhesion): ~0.6 µM
